Results as given in ChEMBL document CHEMBL1201862, “PubChem BioAssay data set” (2004).
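The compound was tested at five concentrations on cells cultured in 96-well plates, with a 48-hour exposure period. At the GI50, growth is halved.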 Active and inactive are the calls of the source. Cut-off read from the data, not from the text of the source: active = GI50 up to about 1.1 µM and inactive = higher.

Tests used:
Assay in all cases: DTP human tumour cell line panel, 48 h
[1] = tested on: NCI-H460
[2] = tested on: OVCAR-3
[3] = tested on: RXF 393
[4] = tested on: HCT-15
[5] = tested on: SK-MEL-2
[6] = tested on: LOX IMVI
[7] = tested on: COLO 205
[8] = tested on: MDA-MB-231
[9] = tested on: UACC-62
[10] = tested on: SK-OV-3
[11] = tested on: NCI/ADR-RES
[12] = tested on: NCI-H23
[13] = tested on: HCC 2998
[14] = tested on: 786-0
[15] = tested on: OVCAR-8
[16] = tested on: UACC-257
[17] = tested on: ACHN
[18] = tested on: UO-31
[19] = tested on: HL-60
[20] = tested on: K562
[21] = tested on: OVCAR-4
[22] = tested on: MDA-MB-435
[23] = tested on: T47D
[24] = tested on: HOP-92
[25] = tested on: PC-3
[26] = tested on: SK-MEL-5
[27] = tested on: HCT-116
[28] = tested on: SK-MEL-28
[29] = tested on: SW-620
[30] = tested on: KM12
[31] = tested on: SNB-19
[32] = tested on: OVCAR-5
[33] = tested on: CCRF-CEM
[34] = tested on: TK-10
[35] = tested on: NCI-H522
[36] = tested on: MDA-N
[37] = tested on: NCI-H226
[38] = tested on: SF-295
[39] = tested on: U-251
[40] = tested on: M14
[41] = tested on: SN12C
[42] = tested on: HT-29
[43] = tested on: SF-268
[44] = tested on: RPMI-8226
[45] = tested on: EKVX
[46] = tested on: MCF7
[47] = tested on: Malme-3M
[48] = tested on: A549
[49] = tested on: SF-539
[50] = tested on: IGROV-1
[51] = tested on: SNB-75
[52] = tested on: MOLT-4
[53] = tested on: DU-145
[54] = tested on: CAKI-1
[55] = tested on: HOP-62
[56] = tested on: BT-549
[57] = tested on: SR
[58] = tested on: Hs-578T

Cc1c(CNc2ccc(C(=O)NC(CCCNC(=O)c3ccccc3C(=O)O)C(=O)O)cc2)cnc2nc(N)nc(N)c12 (centres undefined)
GI50 [1]: 0.000381 µM (active) | GI50 [2]: 0.0168 µM (active) | GI50 [3]: 0.382 µM (active) | GI50 [4]: 0.000453 µM | GI50 [5]: 1.22 µM (inactive) | GI50 [6]: < 0.0001 µM (active) | GI50 [7]: 0.00671 µM (active) | GI50 [8]: 3.23 µM (inactive) | GI50 [9]: 0.000396 µM (active) | GI50 [10]: 0.00644 µM (active) | GI50 [11]: 0.000298 µM (active) | GI50 [12]: 0.00151 µM (active) | GI50 [13]: 0.000899 µM (active) | GI50 [14]: < 0.0001 µM (active) | GI50 [15]: 0.000324 µM (active) | GI50 [16]: 0.785 µM (active) | GI50 [17]: 0.000393 µM (active) | GI50 [18]: 0.001 µM (active) | GI50 [19]: > 100 µM (inactive) | GI50 [20]: < 0.0001 µM (active) | GI50 [21]: 1.55 µM (inactive) | GI50 [22]: 0.000596 µM (active) | GI50 [23]: 0.0615 µM (active) | GI50 [24]: 2.09 µM (inactive) | GI50 [25]: 2 µM (inactive) | GI50 [26]: 0.000644 µM (active) | GI50 [27]: 0.000582 µM (active) | GI50 [28]: 0.192 µM (active) | GI50 [29]: < 0.0001 µM (active) | GI50 [30]: 0.000521 µM (active) | GI50 [31]: 0.01 µM (active) | GI50 [32]: 0.199 µM (active) | GI50 [33]: 0.00057 µM (active) | GI50 [34]: 1.79 µM (inactive) | GI50 [35]: 0.00151 µM (active) | GI50 [36]: 0.001 µM (active) | GI50 [37]: 0.000617 µM (active) | GI50 [38]: 0.000593 µM (active) | GI50 [39]: 0.00358 µM (active) | GI50 [40]: 0.000656 µM (active) | GI50 [41]: 0.00466 µM (active) | GI50 [42]: 0.001 µM (active) | GI50 [43]: 0.000356 µM (active) | GI50 [44]: 0.000834 µM (active) | GI50 [45]: 0.00248 µM (active) | GI50 [46]: 0.0007 µM (active) | GI50 [47]: 0.468 µM (active) | GI50 [48]: 0.000419 µM (active) | GI50 [49]: 0.000461 µM (active) | GI50 [50]: 0.000518 µM (active) | GI50 [51]: 0.00222 µM (active) | GI50 [52]: 0.000566 µM (active) | GI50 [53]: 0.00091 µM (active) | GI50 [54]: 0.001 µM (active) | GI50 [55]: 0.387 µM (active) | GI50 [56]: 1.11 µM (active) | GI50 [57]: 0.000452 µM (active) | GI50 [58]: 0.1 µM (active)

NS(=O)(=O)c1ccc(NC(NC(=O)C(C(F)(F)F)C(F)(F)F)(C(F)(F)F)C(F)(F)F)cc1
GI50 [1]: > 100 µM (inactive) | GI50 [2]: > 100 µM (inactive) | GI50 [3]: > 100 µM (inactive) | GI50 [4]: > 100 µM | GI50 [5]: > 100 µM (inactive) | GI50 [6]: > 100 µM (inactive) | GI50 [7]: > 100 µM (inactive) | GI50 [8]: > 100 µM (inactive) | GI50 [9]: > 100 µM (inactive) | GI50 [10]: > 100 µM (inactive) | GI50 [11]: > 100 µM (inactive) | GI50 [12]: > 100 µM (inactive) | GI50 [13]: > 100 µM (inactive) | GI50 [14]: > 100 µM (inactive) | GI50 [15]: > 100 µM (inactive) | GI50 [16]: > 100 µM (inactive) | GI50 [17]: > 100 µM (inactive) | GI50 [18]: > 100 µM (inactive) | GI50 [19]: > 100 µM (inactive) | GI50 [20]: > 100 µM (inactive) | GI50 [21]: > 100 µM (inactive) | GI50 [22]: > 100 µM (inactive) | GI50 [23]: > 100 µM (inactive) | GI50 [24]: > 100 µM (inactive) | GI50 [25]: > 100 µM (inactive) | GI50 [26]: > 100 µM (inactive) | GI50 [27]: > 100 µM (inactive) | GI50 [28]: > 100 µM (inactive) | GI50 [29]: > 100 µM (inactive) | GI50 [30]: > 100 µM (inactive) | GI50 [31]: > 100 µM (inactive) | GI50 [32]: > 100 µM (inactive) | GI50 [33]: > 100 µM (inactive) | GI50 [34]: 0.305 µM (active) | GI50 [35]: > 100 µM (inactive) | GI50 [36]: > 100 µM (inactive) | GI50 [37]: > 100 µM (inactive) | GI50 [38]: > 100 µM (inactive) | GI50 [39]: > 100 µM (inactive) | GI50 [40]: > 100 µM (inactive) | GI50 [41]: > 100 µM (inactive) | GI50 [42]: > 100 µM (inactive) | GI50 [43]: > 100 µM (inactive) | GI50 [44]: > 100 µM (inactive) | GI50 [45]: > 100 µM (inactive) | GI50 [46]: > 100 µM (inactive) | GI50 [47]: > 100 µM (inactive) | GI50 [48]: > 100 µM (inactive) | GI50 [49]: > 100 µM (inactive) | GI50 [50]: > 100 µM (inactive) | GI50 [51]: > 100 µM (inactive) | GI50 [52]: > 100 µM (inactive) | GI50 [53]: > 100 µM (inactive) | GI50 [54]: > 100 µM (inactive) | GI50 [55]: > 100 µM (inactive) | GI50 [56]: > 100 µM (inactive) | GI50 [57]: > 100 µM (inactive) | GI50 [58]: > 100 µM (inactive)

Nc1c2ccccc2nc2ccc(C(=O)Nc3ccc(S(N)(=O)=O)cc3)cc12
GI50 [1]: > 100 µM (inactive) | GI50 [2]: > 100 µM (inactive) | GI50 [3]: > 100 µM (inactive) | GI50 [4]: > 100 µM | GI50 [5]: > 100 µM (inactive) | GI50 [6]: > 100 µM (inactive) | GI50 [7]: > 100 µM (inactive) | GI50 [8]: > 100 µM (inactive) | GI50 [9]: > 100 µM (inactive) | GI50 [10]: > 100 µM (inactive) | GI50 [11]: > 100 µM (inactive) | GI50 [12]: > 100 µM (inactive) | GI50 [13]: > 100 µM (inactive) | GI50 [14]: > 100 µM (inactive) | GI50 [15]: > 100 µM (inactive) | GI50 [16]: > 100 µM (inactive) | GI50 [17]: > 100 µM (inactive) | GI50 [18]: > 100 µM (inactive) | GI50 [19]: > 100 µM (inactive) | GI50 [20]: > 100 µM (inactive) | GI50 [21]: > 100 µM (inactive) | GI50 [22]: > 100 µM (inactive) | GI50 [23]: > 100 µM (inactive) | GI50 [24]: > 100 µM (inactive) | GI50 [25]: > 100 µM (inactive) | GI50 [26]: > 100 µM (inactive) | GI50 [27]: > 100 µM (inactive) | GI50 [28]: > 100 µM (inactive) | GI50 [29]: > 100 µM (inactive) | GI50 [30]: > 100 µM (inactive) | GI50 [31]: > 100 µM (inactive) | GI50 [32]: > 100 µM (inactive) | GI50 [33]: > 100 µM (inactive) | GI50 [34]: > 100 µM (inactive) | GI50 [35]: > 100 µM (inactive) | GI50 [36]: > 100 µM (inactive) | GI50 [37]: > 100 µM (inactive) | GI50 [38]: > 100 µM (inactive) | GI50 [39]: > 100 µM (inactive) | GI50 [40]: > 100 µM (inactive) | GI50 [41]: > 100 µM (inactive) | GI50 [42]: > 100 µM (inactive) | GI50 [43]: > 100 µM (inactive) | GI50 [44]: > 100 µM (inactive) | GI50 [45]: > 100 µM (inactive) | GI50 [46]: > 100 µM (inactive) | GI50 [47]: > 100 µM (inactive) | GI50 [48]: > 100 µM (inactive) | GI50 [49]: > 100 µM (inactive) | GI50 [50]: > 100 µM (inactive) | GI50 [51]: > 100 µM (inactive) | GI50 [52]: > 100 µM (inactive) | GI50 [53]: > 100 µM (inactive) | GI50 [54]: > 100 µM (inactive) | GI50 [55]: > 100 µM (inactive) | GI50 [56]: > 100 µM (inactive) | GI50 [57]: > 100 µM (inactive) | GI50 [58]: > 100 µM (inactive)
